Test results reported in PubChem BioAssay AID248 (DTP/NCI, 2004).
Where “and” joins values, the source holds several entries; their conditions need not be identical. Equal values may be shown once. Inconclusive results and toxic doses are left out.

System: L1210 leukemia ip in BDF1 mice, survival T/C
Assay: NCI In Vivo Anticancer Drug Screen. Data for tumor model L1210 Leukemia (intraperitoneal) in B6D2F1 (BDF1) mice
Details: endpoint: mean survival time, higher = longer survival
Summary of the method: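 Antitumor effect is assessed in tumor-bearing animals. Survival in the compound arm is compared with a vehicle-dosed control arm and expressed as their quotient.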

[1] = dose: 50.0 mg/kg/injection, schedule: Q01DX009 (ip), vehicle: saline with Tween-80
[2] = dose: 100.0 mg/kg/injection, schedule: Q01DX009 (ip), vehicle: saline with Tween-80
[3] = dose: 200.0 mg/kg/injection, schedule: Q01DX009 (ip), vehicle: saline with Tween-80
[4] = dose: 100.0 mg/kg/injection, schedule: Q04DX003 (ip), vehicle: saline with Tween-80
[5] = dose: 200.0 mg/kg/injection, schedule: Q04DX003 (ip), vehicle: saline with Tween-80
[6] = dose: 400.0 mg/kg/injection, schedule: Q04DX003 (ip), vehicle: saline with Tween-80

SMILES: C=CCCCCCCCCC(=O)NC(C)COC (stereo not given)
- T/C [1]: 103 % of control
- T/C [2]: 103 % of control
- T/C [3]: 100 % of control

SMILES: Cc1cccc(SC(=O)SC(C)CN)c1 (stereo not given)
- T/C (dose: 25.0 mg/kg/injection, schedule: Q04DX002 (ip), vehicle: saline): 99 % of control
- T/C (dose: 50.0 mg/kg/injection, schedule: Q04DX002 (ip), vehicle: saline): 105 % of control
- T/C (dose: 100.0 mg/kg/injection, schedule: Q04DX002 (ip), vehicle: saline): 94 % of control and 99 % of control

SMILES: CC(CN(C)C)CN1c2ccccc2C(C)(C)c2ccccc21 (stereo not given)
- T/C (dose: 13.8 mg/kg/injection, schedule: Q01DX001 (ip), vehicle: water): 101 % of control
- T/C (dose: 27.5 mg/kg/injection, schedule: Q01DX001 (ip), vehicle: water): 104 % of control
- T/C (dose: 45.0 mg/kg/injection, schedule: Q01DX001 (ip), vehicle: water): 98 % of control
- T/C (dose: 50.0 mg/kg/injection, schedule: Q01DX001 (ip), vehicle: water): 91 % of control
- T/C (dose: 100.0 mg/kg/injection, schedule: Q01DX001 (ip), vehicle: water): 91 % of control
- T/C (dose: 200.0 mg/kg/injection, schedule: Q01DX001 (ip), vehicle: water): 91 % of control
- T/C (dose: 400.0 mg/kg/injection, schedule: Q01DX001 (ip), vehicle: water): 97 % of control

SMILES: C/C(=C/c1ccccc1)C(=O)NN
- T/C (dose: 80.0 mg/kg/injection, schedule: Q01DX001 (ip), vehicle: saline with Tween-80): 98 % of control
- T/C (dose: 160.0 mg/kg/injection, schedule: Q01DX001 (ip), vehicle: saline with Tween-80): 106 % of control

SMILES: CC1=NN(c2ccccc2)C(=O)C1C(=O)c1ccccc1 (stereo not given)
- T/C (dose: 25.0 mg/kg/injection, schedule: Q01DX009 (ip), vehicle: saline with Tween-80): 92 % of control
- T/C [1]: 95 % of control
- T/C [4]: 94 % of control

SMILES: c1ccc([As]2c3ccccc3Nc3ccccc32)cc1
- T/C (dose: 100.0 mg/kg/injection, schedule: Q04DX002 (ip), vehicle: saline with Tween-80): 89 % of control
- T/C (dose: 200.0 mg/kg/injection, schedule: Q04DX002 (ip), vehicle: saline with Tween-80): 86 % of control
- T/C (dose: 400.0 mg/kg/injection, schedule: Q04DX002 (ip), vehicle: saline with Tween-80): 86 % of control

SMILES: CCOC(OCC)c1c(Cl)cccc1Cl
- T/C [2]: 98 % of control
- T/C [4]: 99 % of control
- T/C [3]: 88 % of control
- T/C [5]: 93 % of control
- T/C (dose: 400.0 mg/kg/injection, schedule: Q01DX009 (ip), vehicle: saline with Tween-80): 101 % of control
- T/C [6]: 93 % of control

SMILES: CCCCCC(NC(=O)CCl)C(=O)O (stereo not given)
- T/C (dose: 100.0 mg/kg/injection, schedule: Q01DX009 (ip), vehicle: Klucel (hydroxypropylcellulose) (HPC)): 91 % of control
- T/C (dose: 200.0 mg/kg/injection, schedule: Q01DX009 (ip), vehicle: Klucel (hydroxypropylcellulose) (HPC)): 96 % of control
- T/C (dose: 400.0 mg/kg/injection, schedule: Q01DX009 (ip), vehicle: Klucel (hydroxypropylcellulose) (HPC)): 92 % of control

SMILES: COC(=O)C[N+]1(C)C2CCC1CC(Cl)C2 (stereo not given)
- T/C (dose: 100.0 mg/kg/injection, schedule: Q01DX001 (ip), vehicle: saline): 101 % of control

SMILES: CC(CNC(=O)CCOS(C)(=O)=O)NC(=O)CCOS(C)(=O)=O (stereo not given)
- T/C (dose: 22.0 mg/kg/injection, schedule: Q01DX Z (ip), vehicle: carboxymethylcellulose (CMC)): 104 % of control
- T/C (dose: 33.0 mg/kg/injection, schedule: Q01DX Z (ip), vehicle: carboxymethylcellulose (CMC)): 111 % of control
- T/C (dose: 50.0 mg/kg/injection, schedule: Q01DX Z (ip), vehicle: carboxymethylcellulose (CMC)): 100 % of control and 113 % of control
- T/C (dose: 76.0 mg/kg/injection, schedule: Q01DX Z (ip), vehicle: carboxymethylcellulose (CMC)): 107 % of control
- T/C (dose: 113.0 mg/kg/injection, schedule: Q01DX Z (ip), vehicle: carboxymethylcellulose (CMC)): 153 % of control
- T/C (dose: 170.0 mg/kg/injection, schedule: Q01DX Z (ip), vehicle: carboxymethylcellulose (CMC)): 113 % of control

SMILES: O=C(C[n+]1ccccc1)N/N=C/c1ccc(O)c(O)c1
- T/C [1]: 104 % of control
- T/C [2]: 106 % of control
- T/C [4]: 110 % of control
- T/C [3]: 117 % of control
- T/C [5]: 110 % of control

SMILES: COc1ccc2nc(N=Nc3c(N)nc(N)[nH]c3=O)sc2c1
- T/C (dose: 50.0 mg/kg/injection, schedule: Q04DX003 (ip), vehicle: Klucel (hydroxypropylcellulose) (HPC)): 102 % of control
- T/C (dose: 100.0 mg/kg/injection, schedule: Q01DX001 (ip), vehicle: carboxymethylcellulose (CMC)): 106 % of control
- T/C (dose: 100.0 mg/kg/injection, schedule: Q04DX003 (ip), vehicle: Klucel (hydroxypropylcellulose) (HPC)): 104 % of control
- T/C (dose: 200.0 mg/kg/injection, schedule: Q01DX001 (ip), vehicle: carboxymethylcellulose (CMC)): 106 % of control
- T/C (dose: 200.0 mg/kg/injection, schedule: Q04DX003 (ip), vehicle: Klucel (hydroxypropylcellulose) (HPC)): 101 % of control
- T/C (dose: 400.0 mg/kg/injection, schedule: Q01DX001 (ip), vehicle: carboxymethylcellulose (CMC)): 101 % of control

SMILES: O=C(COc1ccc(Cl)c(Cl)c1)NCc1cccc(NC(=O)c2cccc(S(=O)(=O)F)c2)c1
- T/C (dose: 100.0 mg/kg/injection, schedule: Q01DX001 (ip), vehicle: Klucel (hydroxypropylcellulose) (HPC)): 107 % of control
- T/C (dose: 200.0 mg/kg/injection, schedule: Q01DX001 (ip), vehicle: Klucel (hydroxypropylcellulose) (HPC)): 98 % of control
- T/C (dose: 400.0 mg/kg/injection, schedule: Q01DX001 (ip), vehicle: Klucel (hydroxypropylcellulose) (HPC)): 91 % of control

SMILES: CCOC(=O)c1cnc(SC)nc1Nc1ccccc1F
- T/C [4]: 89 % of control
- T/C [5]: 92 % of control

SMILES: CCCC(=O)C(CC)C(OC(C)=O)(C(F)(F)F)C(F)(F)F (stereo not given)
- T/C (dose: 75.0 mg/kg/injection, schedule: Q01DX009 (ip), vehicle: Klucel (hydroxypropylcellulose) (HPC)): 87 % of control
- T/C (dose: 150.0 mg/kg/injection, schedule: Q01DX009 (ip), vehicle: Klucel (hydroxypropylcellulose) (HPC)): 89 % of control
- T/C (dose: 300.0 mg/kg/injection, schedule: Q01DX009 (ip), vehicle: Klucel (hydroxypropylcellulose) (HPC)): 87 % of control

SMILES: CCN(CC)C(N)=Nc1ccc(NC(=O)c2ccc(C(=O)Nc3ccc(N=C(N)N(CC)CC)cc3)cc2)cc1
- T/C (dose: 1.8 mg/kg/injection, schedule: Q01DX Z (ip), vehicle: water): 113 % of control
- T/C (dose: 6.5 mg/kg/injection, schedule: Q01DX Z (ip), vehicle: water): 180 % of control
- T/C (dose: 50.0 mg/kg/injection, schedule: Q01DX Z (oral), vehicle: water): 101 % of control
- T/C (dose: 200.0 mg/kg/injection, schedule: Q01DX Z (oral), vehicle: water): 107 % of control
- T/C (dose: 400.0 mg/kg/injection, schedule: Q01DX Z (oral), vehicle: water): 93 % of control

SMILES: Clc1ccc(N/N=C(\Oc2ccccc2)c2ccccc2)cc1
- T/C [4]: 104 % of control
- T/C [6]: 98 % of control

SMILES: O/N=C(\C=N\O)c1ccccc1
- T/C (dose: 100.0 mg/kg/injection, schedule: Q01DX009 (sc), vehicle: olive oil, sesame oil, peanut oil): 109 % of control
- T/C (dose: 100.0 mg/kg/injection, schedule: Q04DX003 (sc), vehicle: olive oil, sesame oil, peanut oil): 98 % of control
- T/C (dose: 200.0 mg/kg/injection, schedule: Q01DX009 (sc), vehicle: olive oil, sesame oil, peanut oil): 112 % of control
- T/C (dose: 200.0 mg/kg/injection, schedule: Q04DX003 (sc), vehicle: olive oil, sesame oil, peanut oil): 101 % of control
- T/C (dose: 400.0 mg/kg/injection, schedule: Q01DX009 (sc), vehicle: olive oil, sesame oil, peanut oil): 98 % of control

SMILES: CNc1ccc(C(=O)O)c(Cl)c1
- T/C (dose: 75.0 mg/kg/injection, schedule: Q01DX001 (ip), vehicle: saline): 95 % of control
- T/C (dose: 75.0 mg/kg/injection, schedule: Q04DX003 (ip), vehicle: saline): 97 % of control
- T/C (dose: 150.0 mg/kg/injection, schedule: Q01DX001 (ip), vehicle: saline): 98 % of control
- T/C (dose: 150.0 mg/kg/injection, schedule: Q04DX003 (ip), vehicle: saline): 111 % of control
- T/C (dose: 300.0 mg/kg/injection, schedule: Q01DX001 (ip), vehicle: saline): 93 % of control
- T/C (dose: 300.0 mg/kg/injection, schedule: Q04DX003 (ip), vehicle: saline): 103 % of control

SMILES: CCOc1ccccc1NC(=O)c1cc2ccccc2cc1O
- T/C (dose: 100.0 mg/kg/injection, schedule: Q01DX009 (ip), vehicle: saline): 102 % of control
- T/C (dose: 100.0 mg/kg/injection, schedule: Q04DX003 (ip), vehicle: saline): 98 % of control
- T/C (dose: 200.0 mg/kg/injection, schedule: Q01DX009 (ip), vehicle: saline): 109 % of control
- T/C (dose: 200.0 mg/kg/injection, schedule: Q04DX003 (ip), vehicle: saline): 102 % of control
- T/C (dose: 400.0 mg/kg/injection, schedule: Q01DX009 (ip), vehicle: saline): 102 % of control
- T/C (dose: 400.0 mg/kg/injection, schedule: Q04DX003 (ip), vehicle: saline): 100 % of control
